Measured values reported in ChEMBL document CHEMBL3400109, “Synthesis and biological evaluation of C-13' substituted 7'-homo-anhydrovinblastine derivatives” (Bioorg Med Chem Lett, 2015).

Assays:
Tubulin [1] = test: Inhibition of tubulin (unknown origin) polymerization; assay type: protein-complex assay, Homo sapiens
[2] = Cytotoxicity against human U87 cells assessed as inhibition of cell proliferation after 72 hrs; assay type: functional, cell-based, U-87MG ATCC; settings: U-87 MG
[3] = Cytotoxicity against human HCT116 cells assessed as inhibition of cell proliferation after 72 hrs; assay type: functional, cell-based; settings: HCT-116, 72 h
K562 = test: Cytotoxicity against human K562 cells assessed as inhibition of cell proliferation after 72 hrs; assay type: functional, cell-based; settings: K562, 72 h
Tubulin (Homo sapiens) = Tubulin (Homo sapiens) (UniProt P68371+Q9H4B7+P0DPH7+P68366+Q13509+Q71U36+P04350+Q3ZCM7+P07437+P68363+Q9BQE3+Q6PEY2+Q13885+Q9BVA1+Q9BUF5); test: (§1) Inhibition of tubulin (unknown origin) polymerization at 10 mg/ml; assay type: protein-complex assay
Tubulin [4] = test: as §1; assay type: protein-complex assay, Homo sapiens

| SMILES | IC50 (Tubulin [1]) [nM] | IC50 [2] [nM] | IC50 [3] [nM] | IC50 (K562) [nM] | inhibition (Tubulin (Homo sapiens)) [%] | IC50 (Tubulin [4]) [nM] |
| --- | --- | --- | --- | --- | --- | --- |
| CCC1=C[C@@H]2CN(C1)Cc1c([nH]c3ccccc13)[C@@](C(=O)OC)(c1cc3c(cc1OC)N(C)[C@H]1[C@@](O)(C(=O)OC)[C@H](OC(C)=O)[C@]4(CC)C=CCN5CC[C@]31[C@@H]54)C2 [VINORELBINE] | 700 | 3.5 | 15 |  |  |  |
| CCC1=CC2CN(C1)/C(C(=O)NC(C)C)=C(/C(=O)OC)Cc1c([nH]c3ccc(C)cc13)[C@@](C(=O)OC)(c1cc3c(cc1OC)N(C)[C@H]1[C@@](O)(C(=O)OC)[C@H](OC(C)=O)[C@]4(CC)C=CCN5CC[C@]31[C@@H]54)C2 (stereo partly specified) |  | 33 | 20 | 1 | 0 |  |
| C#Cc1ccc2[nH]c3c(c2c1)C/C(C(=O)OC)=C\N1CC(CC)=CC(C1)C[C@]3(C(=O)OC)c1cc2c(cc1OC)N(C)[C@H]1[C@@](O)(C(=O)OC)[C@H](OC(C)=O)[C@]3(CC)C=CCN4CC[C@]21[C@@H]43 (stereo partly specified) |  | 1600 | 2500 | 600 | 27 |  |
| CCC1=CC2CN(/C=C(/C(=O)OC)Cc3c([nH]c4ccc(C)cc34)[C@@](C(=O)OC)(c3cc4c(cc3OC)N(C)[C@H]3[C@@](O)(C(=O)OC)[C@H](OC(C)=O)[C@]5(CC)C=CCN6CC[C@]43[C@@H]65)C2)C1 (stereo partly specified) |  | 11 | 50 | 20 | 23 |  |
| C#Cc1ccc2[nH]c3c(c2c1)C/C(C(=O)OC)=C(/C(=O)NC(C)C)N1CC(CC)=CC(C1)C[C@]3(C(=O)OC)c1cc2c(cc1OC)N(C)[C@H]1[C@@](O)(C(=O)OC)[C@H](OC(C)=O)[C@]3(CC)C=CCN4CC[C@]21[C@@H]43 (stereo partly specified) |  | 2000 | 3000 | 600 | 16 |  |
| CCC1=CC2CN(/C=C(/C(=O)OC)Cc3c([nH]c4ccc(Br)cc34)[C@@](C(=O)OC)(c3cc4c(cc3OC)N(C)[C@H]3[C@@](O)(C(=O)OC)[C@H](OC(C)=O)[C@]5(CC)C=CCN6CC[C@]43[C@@H]65)C2)C1 (stereo partly specified) |  | 3000 | 3000 | 500 | 23 |  |
| CCC1=CC2CN(C1)/C(C(=O)NC(C)C)=C(/C(=O)OC)Cc1c([nH]c3ccc(C=O)cc13)[C@@](C(=O)OC)(c1cc3c(cc1OC)N(C)[C@H]1[C@@](O)(C(=O)OC)[C@H](OC(C)=O)[C@]4(CC)C=CCN5CC[C@]31[C@@H]54)C2 (stereo partly specified) |  | 119 | 47 | 16 | 25 |  |
| CCC1=CC2CN(/C=C(/C(=O)OC)Cc3c([nH]c4ccc(I)cc34)[C@@](C(=O)OC)(c3cc4c(cc3OC)N(C)[C@H]3[C@@](O)(C(=O)OC)[C@H](OC(C)=O)[C@]5(CC)C=CCN6CC[C@]43[C@@H]65)C2)C1 (stereo partly specified) |  | 5000 | 7000 | 1000 |  | 6200 |
| CCC1=CC2CN(C1)/C(C(=O)NC(C)C)=C(/C(=O)OC)Cc1c([nH]c3ccc(I)cc13)[C@@](C(=O)OC)(c1cc3c(cc1OC)N(C)[C@H]1[C@@](O)(C(=O)OC)[C@H](OC(C)=O)[C@]4(CC)C=CCN5CC[C@]31[C@@H]54)C2 (stereo partly specified) |  | 3000 | 5000 |  | 44 |  |
| CC[C@]1(O)C[C@@H]2CN(CCc3c([nH]c4ccccc34)[C@@](C(=O)OC)(c3cc4c(cc3OC)N(C)[C@H]3[C@@](O)(C(=O)OC)[C@H](OC(C)=O)[C@]5(CC)C=CCN6CC[C@]43[C@@H]65)C2)C1 [VINBLASTINE] |  | 1 | 2 | 10 |  |  |
| CCC1=CC2CN(/C=C(/C(=O)OC)Cc3c([nH]c4ccc(C=O)cc34)[C@@](C(=O)OC)(c3cc4c(cc3OC)N(C)[C@H]3[C@@](O)(C(=O)OC)[C@H](OC(C)=O)[C@]5(CC)C=CCN6CC[C@]43[C@@H]65)C2)C1 (stereo partly specified) |  | 23 | 270 | 40 | 11 |  |
